Assay results published in patent US10994015B2, “EGFR proteolysis targeting chimeric molecules and associated methods of use” (Arvinas Operations, Inc., priority 2016, dated 2021).

Key:
EGFR L858R/T790M/C797S = EGFR L858R/T790M/C797S (Homo sapiens (Human), UniProt P00533, C797S/L858R/T790M); experiment: TR-FRET assay for ERBB kinases; format: biochemical; details: geometric mean if measured more than once
Outline: (§1)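 Kinase + cmpd preinc 10 min; start with mix of 3 mM ATP / 30 uM fluorescein poly-GluTyr (mix concs); 10 min RT; stop with 5 nM Tb-pY20 Ab / 40 mM EDTA. Buffer 50 mM HEPES pH 7.5, 10 mM MgCl2.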

EGFR L858R/T790M = EGFR L858R/T790M (Homo sapiens (Human), UniProt P00533, L858R/T790M); experiment: TR-FRET assay for ERBB kinases; format: biochemical; details: geometric mean if measured more than once
Chain of EGFR L858R/T790M (P00533 25-1210 T790M/L858R): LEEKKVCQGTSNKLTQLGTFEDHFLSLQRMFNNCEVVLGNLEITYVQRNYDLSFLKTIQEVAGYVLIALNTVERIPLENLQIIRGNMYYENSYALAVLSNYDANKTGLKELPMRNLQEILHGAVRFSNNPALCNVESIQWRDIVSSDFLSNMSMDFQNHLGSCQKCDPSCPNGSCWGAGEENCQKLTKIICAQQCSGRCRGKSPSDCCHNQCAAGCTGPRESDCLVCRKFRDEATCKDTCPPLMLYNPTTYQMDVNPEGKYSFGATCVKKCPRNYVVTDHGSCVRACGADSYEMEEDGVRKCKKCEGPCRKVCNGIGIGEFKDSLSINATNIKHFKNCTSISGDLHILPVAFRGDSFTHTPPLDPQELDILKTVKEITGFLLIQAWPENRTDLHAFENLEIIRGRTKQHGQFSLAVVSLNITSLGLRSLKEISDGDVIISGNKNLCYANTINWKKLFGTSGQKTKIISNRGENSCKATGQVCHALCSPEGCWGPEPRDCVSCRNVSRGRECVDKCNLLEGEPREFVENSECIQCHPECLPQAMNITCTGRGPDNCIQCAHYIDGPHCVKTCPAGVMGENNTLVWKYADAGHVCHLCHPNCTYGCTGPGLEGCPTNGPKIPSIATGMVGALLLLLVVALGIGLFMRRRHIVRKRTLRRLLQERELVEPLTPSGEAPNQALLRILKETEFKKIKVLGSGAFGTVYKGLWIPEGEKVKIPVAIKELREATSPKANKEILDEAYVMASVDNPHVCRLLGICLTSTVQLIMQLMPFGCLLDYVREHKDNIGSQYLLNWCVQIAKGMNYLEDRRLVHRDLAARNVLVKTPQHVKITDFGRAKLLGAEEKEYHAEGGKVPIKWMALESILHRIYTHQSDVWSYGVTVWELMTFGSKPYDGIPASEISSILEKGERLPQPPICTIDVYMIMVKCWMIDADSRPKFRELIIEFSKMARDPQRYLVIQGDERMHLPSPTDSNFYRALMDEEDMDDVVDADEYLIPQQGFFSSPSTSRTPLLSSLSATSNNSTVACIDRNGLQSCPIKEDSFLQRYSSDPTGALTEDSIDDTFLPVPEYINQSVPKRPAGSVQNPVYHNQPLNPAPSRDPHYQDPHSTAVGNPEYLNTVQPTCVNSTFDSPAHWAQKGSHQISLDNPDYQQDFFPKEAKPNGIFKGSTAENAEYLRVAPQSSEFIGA
Outline: as §1

EGFR WT = EGFR WT (Homo sapiens (Human), UniProt P00533); experiment: TR-FRET assay for ERBB kinases; format: biochemical; details: geometric mean if measured more than once
Outline: as §1

EGFR Exon20NPG = EGFR Exon20NPG (Homo sapiens (Human), UniProt P00533, INS770NPG); experiment: TR-FRET assay for ERBB kinases; format: biochemical; details: geometric mean if measured more than once
Outline: (§2)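 Phosphorylation of fluorescein-labeled poly-GluTyr read as TR-FRET using Tb-pY20 antibody after EDTA stop, with 340 nm excitation. Kinase reaction ran 10 min at room temperature following 10 min compound pre-incubation; substrate mix held 3 mM ATP and 30 µM peptide before addition. Buffer was HEPES pH 7.5.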

HER3 = HER3 (Homo sapiens (Human), UniProt P21860); experiment: TR-FRET assay for ERBB kinases; format: biochemical; details: geometric mean if measured more than once
[1] = molecular target: EGFR L858R/T790M double mutant (H1975) (Homo sapiens (Human), UniProt P00533, L858R/T790M); experiment: EGFR protein degradation assay (Western blot); format: cell-based; details: 72 hours, 300 nM to 10 nM
Chain of EGFR L858R/T790M double mutant (H1975) (P00533 25-1210 T790M/L858R): as above
Outline: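 EGFR protein levels were measured by immunoblotting. Lysate protein was quantified by BCA, and 10 μg per sample was separated by SDS/PAGE at 165V for 2 hours and transferred to PVDF. Membranes were blocked in TBS-T with 5% milk for 1 hour, probed overnight at 4° C with EGFR and tubulin antibodies, then secondary antibody for 1 hour, and detected by ECL on a Chemidoc.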

[2] = molecular target: EGFR-wt (MDA-MB-231 or MCF7 or A549 or OVCAR8) (Homo sapiens (Human), UniProt P00533); experiment: EGFR protein degradation assay (Western blot); format: cell-based; details: 72 hours, 300 nM to 10 nM
Chain of EGFR-wt (MDA-MB-231 or MCF7 or A549 or OVCAR8) (P00533 25-1210): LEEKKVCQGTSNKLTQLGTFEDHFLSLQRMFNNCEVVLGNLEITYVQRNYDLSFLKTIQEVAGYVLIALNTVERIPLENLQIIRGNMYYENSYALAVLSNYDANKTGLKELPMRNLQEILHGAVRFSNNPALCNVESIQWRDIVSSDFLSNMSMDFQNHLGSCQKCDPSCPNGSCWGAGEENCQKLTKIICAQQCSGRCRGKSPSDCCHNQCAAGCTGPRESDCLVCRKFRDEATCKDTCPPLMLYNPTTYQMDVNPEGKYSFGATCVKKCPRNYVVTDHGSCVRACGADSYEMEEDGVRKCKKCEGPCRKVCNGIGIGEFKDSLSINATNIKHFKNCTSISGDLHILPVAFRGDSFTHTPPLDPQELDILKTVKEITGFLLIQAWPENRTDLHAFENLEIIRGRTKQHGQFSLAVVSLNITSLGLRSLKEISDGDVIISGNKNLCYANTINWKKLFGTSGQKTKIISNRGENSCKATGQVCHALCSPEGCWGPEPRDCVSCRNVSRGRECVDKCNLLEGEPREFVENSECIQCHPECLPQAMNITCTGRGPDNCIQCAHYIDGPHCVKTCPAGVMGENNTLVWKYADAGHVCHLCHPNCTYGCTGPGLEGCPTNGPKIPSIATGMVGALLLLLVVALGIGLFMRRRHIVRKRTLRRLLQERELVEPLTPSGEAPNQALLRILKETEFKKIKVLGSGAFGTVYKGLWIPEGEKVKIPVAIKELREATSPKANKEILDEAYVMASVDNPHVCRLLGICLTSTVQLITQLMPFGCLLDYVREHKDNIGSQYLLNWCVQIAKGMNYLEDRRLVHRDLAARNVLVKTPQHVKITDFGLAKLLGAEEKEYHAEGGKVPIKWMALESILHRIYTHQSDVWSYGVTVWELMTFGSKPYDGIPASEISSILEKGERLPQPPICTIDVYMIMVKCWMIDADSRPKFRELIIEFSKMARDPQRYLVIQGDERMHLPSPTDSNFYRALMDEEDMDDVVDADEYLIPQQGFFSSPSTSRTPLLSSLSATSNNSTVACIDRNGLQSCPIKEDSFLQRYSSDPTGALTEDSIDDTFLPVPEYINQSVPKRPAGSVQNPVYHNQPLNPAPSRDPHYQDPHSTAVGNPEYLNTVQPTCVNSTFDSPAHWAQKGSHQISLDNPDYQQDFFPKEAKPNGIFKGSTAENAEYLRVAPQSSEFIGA
Outline: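 EGFR degradation was assessed by Western blot. Cells expressing the appropriate EGFR were seeded in 6-well plates (300,000 cells per well) and adhered overnight. Media was removed, cells were washed with cold phosphate-buffered saline, scraped into 400 μl Cell Signaling lysis buffer plus protease inhibitor cocktail, and spun once at 10 000 rpm for 10 minutes. After BCA quantification, loading buffer and reducing agent were added. Gels loaded with 10 μg protein ran at 165V for 2 hours, and bands were visualized by chemiluminescence.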

EGFR Exon 20 ASV (HeLa*) = EGFR Exon 20 ASV (HeLa*) (Homo sapiens (Human), UniProt P00533, DUP767-769); experiment: EGFR protein degradation assay (Western blot); format: cell-based; details: 72 hours, 300 nM to 10 nM
EGFR Δ19/746/750 = EGFR Δ19/746/750 (Homo sapiens (Human), UniProt P00533, DEL746-750); experiment: TR-FRET assay for ERBB kinases; format: biochemical; details: geometric mean if measured more than once
Outline: as §2

EGFR Δ19/746/750 T790M = EGFR Δ19/746/750 T790M (Homo sapiens (Human), UniProt P00533, DEL746-750/T790M); experiment: TR-FRET assay for ERBB kinases; format: biochemical; details: geometric mean if measured more than once
Outline: as §2

EGFR L858R = EGFR L858R (Homo sapiens (Human), UniProt P00533, L858R); experiment: TR-FRET assay for ERBB kinases; format: biochemical; details: geometric mean if measured more than once
Chain of EGFR L858R (P00533 25-1210 L858R): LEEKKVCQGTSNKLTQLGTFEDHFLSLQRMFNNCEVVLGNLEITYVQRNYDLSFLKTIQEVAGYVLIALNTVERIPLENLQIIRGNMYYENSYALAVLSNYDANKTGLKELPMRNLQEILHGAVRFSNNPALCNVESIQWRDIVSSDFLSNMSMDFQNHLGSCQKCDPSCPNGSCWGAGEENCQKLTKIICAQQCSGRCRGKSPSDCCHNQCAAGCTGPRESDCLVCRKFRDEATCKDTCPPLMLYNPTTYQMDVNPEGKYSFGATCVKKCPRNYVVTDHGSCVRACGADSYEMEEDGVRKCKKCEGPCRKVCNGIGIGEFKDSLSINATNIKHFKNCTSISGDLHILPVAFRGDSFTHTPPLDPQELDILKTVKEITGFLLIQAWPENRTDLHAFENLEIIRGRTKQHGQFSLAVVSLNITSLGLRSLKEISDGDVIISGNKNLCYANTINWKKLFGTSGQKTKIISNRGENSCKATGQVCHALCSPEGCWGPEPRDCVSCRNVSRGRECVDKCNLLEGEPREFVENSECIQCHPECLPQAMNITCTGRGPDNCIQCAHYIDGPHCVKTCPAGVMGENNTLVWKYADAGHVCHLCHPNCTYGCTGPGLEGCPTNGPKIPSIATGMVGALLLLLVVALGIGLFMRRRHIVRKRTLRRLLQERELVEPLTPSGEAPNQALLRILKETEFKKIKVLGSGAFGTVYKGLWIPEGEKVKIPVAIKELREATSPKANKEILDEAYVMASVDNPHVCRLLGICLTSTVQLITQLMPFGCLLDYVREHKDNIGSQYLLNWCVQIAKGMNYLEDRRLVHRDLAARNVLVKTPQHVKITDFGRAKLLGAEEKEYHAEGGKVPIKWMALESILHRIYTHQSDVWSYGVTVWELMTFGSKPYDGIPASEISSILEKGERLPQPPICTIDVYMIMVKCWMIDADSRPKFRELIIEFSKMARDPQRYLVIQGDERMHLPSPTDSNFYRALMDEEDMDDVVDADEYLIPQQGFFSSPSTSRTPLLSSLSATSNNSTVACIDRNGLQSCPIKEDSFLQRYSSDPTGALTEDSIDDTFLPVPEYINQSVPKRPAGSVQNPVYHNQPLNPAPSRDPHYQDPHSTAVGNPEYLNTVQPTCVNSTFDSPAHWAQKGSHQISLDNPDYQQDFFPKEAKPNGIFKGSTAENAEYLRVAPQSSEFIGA
Outline: as §2

HER2WT = HER2WT (Homo sapiens (Human), UniProt P04626); experiment: TR-FRET assay for ERBB kinases; format: biochemical; details: geometric mean if measured more than once
Outline: as §2

[3] = molecular target: EGFR L858R/T790M/C797S triple mutant (H520*) (Homo sapiens (Human), UniProt P00533, C797S/L858R/T790M); experiment: EGFR protein degradation assay (Western blot); format: cell-based; details: 72 hours, 300 nM to 10 nM
Outline: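 EGFR loss in the triple-mutant line measured by immunoblot: clarified lysates normalised by BCA, run on 4-12% Bis-Tris gels, blotted to PVDF, probed with HRP anti-rabbit secondary. Before lysis, cells were dosed from 1, 0.3, 0.1, 0.03 and 0.01 mM DMSO stocks (not final concentrations) after overnight culture at 37° C.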

| SMILES | IC50 (EGFR L858R/T790M/C797S) [µM] | IC50 (EGFR L858R/T790M) [µM] | IC50 (EGFR WT) [µM] | IC50 (EGFR Exon20NPG) [µM] | IC50 (HER3) [µM] | EGFR protein remaining, EGFR L858R/T790M double mutant [1] | EGFR protein remaining, EGFR-wt [2] | EGFR protein remaining, EGFR Exon 20 ASV (EGFR Exon 20 ASV (HeLa*)) | IC50 (EGFR Δ19/746/750) [µM] | IC50 (EGFR Δ19/746/750 T790M) [µM] | IC50 (EGFR L858R) [µM] | IC50 (HER2WT) [µM] | EGFR protein remaining, EGFR L858R/T790M/C797S triple mutant [3] |
| --- | --- | --- | --- | --- | --- | --- | --- | --- | --- | --- | --- | --- | --- |
| Cc1ncsc1-c1ccc(CNC(=O)[C@@H]2C[C@@H](O)CN2C(=O)[C@@H](NC(=O)COCCOCCOc2ccc(-c3ccc4ncnc(Nc5ccc(OCc6cccc(F)c6)c(Cl)c5)c4c3)cc2)C(C)(C)C)cc1 [Example 97, (2S,4R)-1-((S)-2-(2-(2-(2-(4-(4-((3-Chloro-4-((3-fluorobenzyl)oxy)phenyl)amino)quinazolin-6-yl)phenoxy)ethoxy)ethoxy)acetamido)-3,3-dimethylbutanoyl)-4-hydroxy-N-(4-(4-methylthiazol-5-yl)benzyl)pyrrolidine-2-carboxamide] | > 30 | > 30 | 1.5 | > 30 | 29 | B (≤80% and >50% EGFR protein remaining after 72 hours of incubation with the test compound at a concentration between 300 nM and 10 nM) | A (≤50% EGFR protein remaining after 72 hours of incubation with the test compound at a concentration between 300 nM and 10 nM) | A (≤50% EGFR protein remaining after 72 hours of incubation with the test compound at a concentration between 300 nM and 10 nM) |  |  |  |  |  |
| Cc1ncsc1-c1ccc(CNC(=O)[C@@H]2C[C@@H](O)CN2C(=O)[C@@H](NC(=O)COCCOCCOc2ccc(-c3cc4c(NCc5ccccc5Cl)ncnc4[nH]3)cc2)C(C)(C)C)cc1 [compound 15] | 17 | > 30 | 0.69 | 4.7 |  |  | C (>80% EGFR protein remaining after 72 hours of incubation with the test compound at a concentration of 300 nM) | C (>80% EGFR protein remaining after 72 hours of incubation with the test compound at a concentration of 300 nM) | 0.14 | > 30 | 0.2 | 19 |  |
| COC1CCN(c2nccc(Nc3cc4c(cn3)nc(COCCN3CCN(CCOc5ccc6c(c5)C(=O)N(C5CCC(=O)NC5=O)C6=O)CC3)n4C(C)C)n2)CC1 (stereo not shown) [Example 76, 2-(2,6-dioxopiperidin-3-yl)-5-(2-(4-(2-((1-isopropyl-6-((2-(4-methoxypiperidin-1-yl)pyrimidin-4-yl)amino)-1H-imidazo[4,5-c]pyridin-2-yl)methoxy)ethyl)piperazin-1-yl)ethoxy)isoindoline-1,3-dione] | 0.036 | 0.36 | 17 | 14 | 8.6 | C (>80% EGFR protein remaining after 72 hours of incubation with the test compound at a concentration of 300 nM) |  |  |  |  |  |  | C (>80% EGFR protein remaining after 72 hours of incubation with the test compound at a concentration of 300 nM) |
| COC1(CCN2CCN(c3ccc4c(c3)C(=O)N(C3CCC(=O)NC3=O)C4=O)CC2)CCN(c2nccc(Nc3cc4c(cn3)nc(C)n4C(C)C)n2)CC1 (stereo not shown) [Example 78, 2-(2,6-dioxopiperidin-3-yl)-5-(4-(2-(1-(4-((1-isopropyl-2-methyl-1H-imidazo[4,5-c]pyridin-6-yl)amino)pyrimidin-2-yl)-4-methoxypiperidin-4-yl)ethyl)piperazin-1-yl)isoindoline-1,3-dione] | 0.025 | 0.25 | 5.7 | 5.6 | 25 | C (>80% EGFR protein remaining after 72 hours of incubation with the test compound at a concentration of 300 nM) |  |  |  |  |  |  | C (>80% EGFR protein remaining after 72 hours of incubation with the test compound at a concentration of 300 nM) |
| O=C1CCC(N2C(=O)c3cccc(NCCOCCOc4ccc(-c5cc6c(NCc7ccccc7Cl)ncnc6[nH]5)cc4)c3C2=O)C(=O)N1 (stereo not shown) [compound 13] | > 30 | > 30 | 0.76 | 5.3 |  |  | C (>80% EGFR protein remaining after 72 hours of incubation with the test compound at a concentration of 300 nM) | C (>80% EGFR protein remaining after 72 hours of incubation with the test compound at a concentration of 300 nM) | 0.037 | > 30 | 0.13 | > 30 |  |
| O=C1CCC(N2C(=O)c3cccc(NCCOCCOCCOCCOCCOCCN4CCN(Cc5ccc(-c6cc7c(NCc8ccccc8Cl)ncnc7[nH]6)cc5)CC4)c3C2=O)C(=O)N1 (stereo not shown) [Example 8, 4-((17-(4-(4-(4-((2-chlorobenzyl)amino)-7H-pyrrolo[2,3-d]pyrimidin-6-yl)benzyl)piperazin-1-yl)-3,6,9,12,15-pentaoxaheptadecyl)amino)-2-(2,6-dioxopiperidin-3-yl)isoindoline-1,3-dione] | 3.2 | 7.2 | 0.089 | 0.45 |  |  | C (>80% EGFR protein remaining after 72 hours of incubation with the test compound at a concentration of 300 nM) | C (>80% EGFR protein remaining after 72 hours of incubation with the test compound at a concentration of 300 nM) | 0.0017 | 4.8 | 0.011 | 1.2 |  |
| O=C1CCC(N2C(=O)c3cccc(NCCOCCOCCN4CCN(Cc5ccc(-c6cc7c(NCc8ccccc8Cl)ncnc7[nH]6)cc5)CC4)c3C2=O)C(=O)N1 (stereo not shown) [compound 9] | 3.1 | 6.8 | 0.027 | 0.26 |  |  | C (>80% EGFR protein remaining after 72 hours of incubation with the test compound at a concentration of 300 nM) | C (>80% EGFR protein remaining after 72 hours of incubation with the test compound at a concentration of 300 nM) | 0.0019 | 3.9 | 0.0049 | 0.59 |  |
| Cc1ncsc1-c1ccc(CNC(=O)[C@@H]2C[C@@H](O)CN2C(=O)[C@@H](NC(=O)CCCCCOCCCCOCCCCOc2cc3ncnc(Nc4ccc(F)c(Cl)c4)c3cc2NC(=O)/C=C/CN(C)C)C(C)(C)C)cc1 [Example 66, (2S,4R)-1-((S)-2-(6-(4-(4-((4-((3-chloro-4-fluorophenyl)amino)-6-((E)-4-(dimethylamino)but-2-enamido)quinazolin-7-yl)oxy)butoxy)butoxy)hexanamido)-3,3-dimethylbutanoyl)-4-hydroxy-N-(4-(4-methylthiazol-5-yl)benzyl)pyrrolidine-2-carboxamide] |  |  |  |  | 6.6 | A (≤50% EGFR protein remaining after 72 hours of incubation with the test compound at a concentration between 300 nM and 10 nM) | A (≤50% EGFR protein remaining after 72 hours of incubation with the test compound at a concentration between 300 nM and 10 nM) | B (≤80% and >50% EGFR protein remaining after 72 hours of incubation with the test compound at a concentration between 300 nM and 10 nM) |  |  |  |  | C (>80% EGFR protein remaining after 72 hours of incubation with the test compound at a concentration of 300 nM) |
